Legend:
[1] = biological target: T1, recombinant human JAK1 kinase domain protein (Residues 854-1154) (Homo sapiens, UniProt P23458); experiment: JAK1 biochemical assay (microfluidic mobility shift, peptide phosphorylation); conditions: 25 μM ATP, 1 nM total JAK1; Ki calculated from Ki app (tight-binding, competitive); read-out: Biochem JAK1 Ki
T1 construct: human JAK1 kinase domain protein (Residues 854-1154); purchased Proteros Biostructures GmbH (Martinsried, Germany); host or cells: insect cells
Description: (§1) The in vitro biochemical assays quantify JAK-catalyzed phosphorylation of a synthetic peptide, as detected using a LabChip® EZ Reader II microfluidic mobility shift instrument (PerkinElmer; Waltham, MA). The substrate peptide Y-1B has the sequence 5-FAM-VALVDGYFRLTT-NH2. Y-1B is fluorescently labeled on the N-terminus with 5-FAM (5-carboxyfluorescein) and contains a single tyrosine residue (Y) that can be phosphorylated by JAK activity. The substrate peptide stock is prepared in DMSO at 5 mM. Purified recombinant human JAK1 kinase domain protein (Residues 854-1154) was expressed in insect cells and procured from Proteros Biostructures GmbH (Martinsried, Germany). Recombinant human JAK2 kinase domain protein (Residues 812-1132) was expressed in insect cells and purified at Genentech, Inc. (South San Francisco, CA).
(§2) The kinase reaction mixtures contained 100 mM 4-(2-hydroxyethyl)-1-piperazineethanesulfonic acid (HEPES) buffer (pH 7.2), 10 mM magnesium chloride, 0.015% Brij® 35, 4 mM dithiothreitol, 1.5 μM Y-1B peptide substrate, 25 μM adenosine triphosphate (ATP), 1 nM total JAK1 or 0.2 nM total JAK2, and up to 1000 nM test compound in a final concentration of 2% (volume to volume [v/v]) DMSO. In each titration experiment, test compound was tested in duplicate at each of the twelve concentrations. Blank reactions contained ATP, peptide, and DMSO, but no JAK or test compound, whereas uninhibited control reactions contained ATP, peptide, JAK, and DMSO, but no test compound.
(§3) Peptide plus ATP mixture (24 μL) was added to 1 μL of test compound in DMSO (or DMSO alone). The reactions were initiated by adding 25 μL of JAK enzyme to the inhibitor/peptide/ATP mixture before thoroughly mixing the resultant solution. Reactions were incubated at room temperature (22° C.-23° C.) in a final volume of 50 μL per well in 384-well plates. After a 30-minute incubation, the reactions were stopped by adding 25 μL of 150 mM ethylenediaminetetraacetic acid in 100 mM HEPES buffer (pH 7.2) containing 0.015% Brij 35 to each well.
(§4) In each reaction, the residual Y-1B substrate and the phospho-peptide product generated were separated using the EZ Reader 1 instrument. Electrophoretic separation of molecules of product from molecules of substrate was achieved using downstream and upstream voltages of −500 and −2600 V, respectively, at an operating pressure of −1.3 psi. The 5-FAM group present on both the substrate and product peptides was excited at 488 nm, the fluorescence was detected at 530 nm, and the peak heights were reported.
(§5) The extent (or percent) of conversion of substrate to product was calculated from the corresponding peak heights in the electropherogram using HTS Well Analyzer software, Version 5.2 (PerkinElmer), and the following equation (Equation 1): % conversion=[P[…](S+P)]×100 Equation 1 where S and P represent the peak heights of the substrate and product, respectively. After any baseline signal from blank wells containing no JAK was subtracted from the signal of all test wells, the % conversion data were converted to fractional activity as shown in Equation 2, where νi and νo are the % conversion in the presence and absence of test compound, respectively. The % conversion observed in the uninhibited control reactions containing JAK and DMSO vehicle, but no test compound, was defined to have fractional activity=1 (with no inhibitor present, νi=νo), whereas blank wells with no JAK were defined as having fractional activity=0. Fractional activity was plotted against test compound concentration and the data were fitted using XLfit software (IDBS; Guildford, United Kingdom) to a tight-binding apparent inhibition constant (Ki^app) quadratic equation (see Equation 2) (Williams J W, Morrison J F. The kinetics of reversible tight-binding inhibition. Methods Enymol 1979; 63:437-67), which was used to calculate fractional activity and Ki^app […]

[2] = tested on: JAK1 (IL-13-stimulated STAT6 phosphorylation in BEAS-2B cells); experiment: P-STAT6 BEAS-2B+IL-13 cell assay; format: cell-based, human; conditions: Homo sapiens, BEAS-2B, 1 h, 1 hour compound, IL-13 15 minutes, IC50 by four-parameter fit, read-out: Cellular JAK1 PSTAT6 BEAS2B + IL13
Description: In order to study the effect of JAK1 inhibitors in a cell line that is relevant to the cell biology of human asthma, an IL-13-stimulated STAT6 phosphorylation assay in the human lung bronchial epithelial BEAS-2B cell line was developed.
BEAS-2B cells (ATCC® CRL-9609™) were grown in Bronchial Epithelial Growth Medium (BEGM) (Lonza Catalog No. CC-3170; Walkersville, MD; or PromoCell Catalog No. C-21060; Heidelberg, Germany). Test compound stock solutions (0.5 mM in DMSO) were serially diluted 1:2 in DMSO to generate a 10-point concentration curve (at 500× test concentration), which was further diluted by a 50-fold dilution step in BEGM to generate a 10× concentration curve (in 2% DMSO). Cells were plated at 100,000 cells/well in 200 μL of BEGM in 96-well plates and incubated for 48 hours at 37° C. in a humidified incubator. Medium was aspirated from the cells and replaced with 70 μL of fresh BEGM. Diluted test compound (10 μL; or 2% DMSO in assay medium) was added to the cells, and the plates were incubated for 1 hour at 37° C. in a humidified incubator. Twenty μL of 250 ng/mL human recombinant IL-13 (Bio Techne Catalog No. 213-ILB) was then added to the cells and incubated for 15 minutes at 37° C. Medium was aspirated from the cells and 60 μL of ice-cold 1×cell lysis buffer (Cell Signaling Technologies; Catalog No. 9803S) containing 1 mM PMSF was added to the cells. Assay plates were incubated at −80° C. for at least 1 hour. P-STAT6 was measured by coating GAR plates (MSD; Catalog No. L45RA-1) with rabbit anti-human total STAT6 antibody (Cell Signaling Technologies; Catalog No. 9362S), incubating the cell lysates in the coated plates overnight at 4° C., and then detecting with mouse anti-phospho-STAT6 (Tyr641) Clone 16E12 antibody (Millipore; Catalog No. 05-590, custom labeled by MSD with SULFO-tag) using standard MSD plate processing, washing, and detection protocols. Plates were read on the MESO SECTOR S600.
Data analysis was performed by subtracting negative control values from all wells and determining percent of control using the positive control values; the IC50 was determined with a four-parameter logistic fit model as shown in Equation 4.

[3] = biological target: T2, Recombinant human JAK2 kinase domain protein (Residues 812-1132) (Homo sapiens, UniProt O60674); experiment: JAK2 biochemical assay (microfluidic mobility shift, peptide phosphorylation); conditions: 25 μM ATP, 0.2 nM total JAK2; Ki calculated from Ki app (tight-binding, competitive); read-out: Biochem JAK2 Ki
T2 construct: human JAK2 kinase domain protein (Residues 812-1132); made in house; host or cells: insect cells
Description: as §1, §2, §3, §4, §5

T1 sequence (P23458 854-1154): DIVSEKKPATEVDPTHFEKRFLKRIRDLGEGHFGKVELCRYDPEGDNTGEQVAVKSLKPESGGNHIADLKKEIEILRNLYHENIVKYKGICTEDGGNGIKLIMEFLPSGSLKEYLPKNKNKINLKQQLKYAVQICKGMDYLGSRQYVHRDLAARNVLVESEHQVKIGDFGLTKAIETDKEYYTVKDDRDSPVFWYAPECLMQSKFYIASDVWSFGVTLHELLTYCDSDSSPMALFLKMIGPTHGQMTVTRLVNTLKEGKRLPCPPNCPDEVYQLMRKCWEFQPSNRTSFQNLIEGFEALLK
T2 sequence (O60674 812-1132): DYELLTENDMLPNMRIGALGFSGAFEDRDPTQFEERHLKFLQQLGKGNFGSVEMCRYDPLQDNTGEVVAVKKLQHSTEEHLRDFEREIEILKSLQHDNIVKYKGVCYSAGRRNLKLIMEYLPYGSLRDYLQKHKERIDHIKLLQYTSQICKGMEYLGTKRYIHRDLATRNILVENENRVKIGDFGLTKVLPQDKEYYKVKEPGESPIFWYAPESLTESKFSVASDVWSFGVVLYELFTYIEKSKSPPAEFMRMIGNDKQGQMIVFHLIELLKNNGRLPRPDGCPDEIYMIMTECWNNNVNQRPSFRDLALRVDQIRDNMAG

SMILES | Ki [1] | IC50 [2] | Ki [3]
O=C(Nc1cn(Cc2nnnn2CCN2CCOCC2)nc1-c1cc(Cl)ccc1OC(F)F)c1cnn2cccnc12 [Example 5, N-[3-[5-chloro-2-(difluoromethoxy)phenyl]-1-[[1-(2-morpholinoethyl)tetrazol-5-yl]methyl]pyrazol-4-yl]pyrazolo[1,5-a]pyrimidine-3-carboxamide] | 0.4 nM | 15 nM | 0.23 nM
O=C(Nc1cn(Cc2nnn(CCN3CCNCC3)n2)nc1-c1cc(Cl)ccc1OC(F)F)c1cnn2cccnc12 [Example 40, N-[3-[5-chloro-2-(difluoromethoxy)phenyl]-1-[[2-(2-piperazin-1-ylethyl)tetrazol-5-yl]methyl]pyrazol-4-yl]pyrazolo[1,5-a]pyrimidine-3-carboxamide] | 0.78 nM | 86 nM | 0.68 nM
CN(C)C1CCN(CCn2nnc(Cn3cc(NC(=O)c4cnn5cccnc45)c(-c4cc(OC(F)F)ccc4OC(F)F)n3)n2)CC1 [Example 59, N-[3-[2,5-bis(difluoromethoxy)phenyl]-1-[[2-[2-[4-(dimethylamino)-1-piperidyl]ethyl]tetrazol-5-yl]methyl]pyrazol-4-yl]pyrazolo[1,5-a]pyrimidine-3-carboxamide] | 1 nM | 62 nM | 0.71 nM
CN1CCC[C@H]1CN1CC(n2nnc(Cn3cc(NC(=O)c4cnn5cccnc45)c(-c4cc(OC(F)F)ccc4OC(F)F)n3)n2)C1 (racemic) [Example 46, N-[3-[2,5-bis(difluoromethoxy)phenyl]-1-[[2-[1-[[rac-(2S)-1-methylpyrrolidin-2-yl]methyl]azetidin-3-yl]tetrazol-5-yl]methyl]pyrazol-4-yl]pyrazolo[1,5-a]pyrimidine-3-carboxamide; formic acid] | 0.49 nM | 18 nM | 0.4 nM
O=C(Nc1cn(Cc2nnn(CCN3CCOCC3)n2)nc1-c1cc(Cl)ccc1OC(F)F)c1cnn2cccnc12 [Example 2, N-[3-[5-chloro-2-(difluoromethoxy)phenyl]-1-[[2-(2-morpholinoethyl)tetrazol-5-yl]methyl]pyrazol-4-yl]pyrazolo[1,5-a]pyrimidine-3-carboxamide] | 0.54 nM | 14 nM | 0.29 nM
O=C(Nc1cn(Cc2nnn(C3CCN(C4CCOCC4)CC3)n2)nc1-c1cc(Cl)ccc1OC(F)F)c1cnn2cccnc12 [Example 9, N-[3-[5-chloro-2-(difluoromethoxy)phenyl]-1-[[2-(1-tetrahydropyran-4-yl-4-piperidyl)tetrazol-5-yl]methyl]pyrazol-4-yl]pyrazolo[1,5-a]pyrimidine-3-carboxamide] | 0.48 nM | 13 nM | 0.24 nM
NCCN1CCC(n2nnc(Cn3cc(NC(=O)c4cnn5cccnc45)c(-c4cc(OC(F)F)ccc4OC(F)F)n3)n2)CC1 [Example 25, N-[1-[[2-[1-(2-aminoethyl)-4-piperidyl]tetrazol-5-yl]methyl]-3-[2,5-bis(difluoromethoxy)phenyl]pyrazol-4-yl]pyrazolo[1,5-a]pyrimidine-3-carboxamide] | 0.77 nM | 300 nM | 0.8 nM
CN(C)CCCN1CC(n2nnc(Cn3cc(NC(=O)c4cnn5cccnc45)c(-c4cc(OC(F)F)ccc4OC(F)F)n3)n2)C1 [Example 51, N-[3-[2,5-bis(difluoromethoxy)phenyl]-1-[[2-[1-[3-(dimethylamino)propyl]azetidin-3-yl]tetrazol-5-yl]methyl]pyrazol-4-yl]pyrazolo[1,5-a]pyrimidine-3-carboxamide] | 0.37 nM | 12 nM | 0.37 nM
CN(C)CCCCN1CC(n2nnc(Cn3cc(NC(=O)c4cnn5cccnc45)c(-c4cc(OC(F)F)ccc4OC(F)F)n3)n2)C1 [Example 55, N-[3-[2,5-bis(difluoromethoxy)phenyl]-1-[[2-[1-[4-(dimethylamino)butyl]azetidin-3-yl]tetrazol-5-yl]methyl]pyrazol-4-yl]pyrazolo[1,5-a]pyrimidine-3-carboxamide] | 0.6 nM | 44 nM | 0.58 nM
CSc1ccc(OC(F)F)c(-c2nn(Cc3nnnn3CCN(C)C)cc2NC(=O)c2cnn3cccnc23)c1 [Example 41, N-[3-[2-(difluoromethoxy)-5-methylsulfanyl-phenyl]-1-[[1-[2-(dimethylamino)ethyl]tetrazol-5-yl]methyl]pyrazol-4-yl]pyrazolo[1,5-a]pyrimidine-3-carboxamide] | 0.32 nM | 14 nM | 0.2 nM
CN1CC(CN2CC(n3nnc(Cn4cc(NC(=O)c5cnn6cccnc56)c(-c5cc(OC(F)F)ccc5OC(F)F)n4)n3)C2)C1 [Example 56, N-[3-[2,5-bis(difluoromethoxy)phenyl]-1-[[2-[1-[(1-methylazetidin-3-yl)methyl]azetidin-3-yl]tetrazol-5-yl]methyl]pyrazol-4-yl]pyrazolo[1,5-a]pyrimidine-3-carboxamide] | 0.84 nM | 80 nM | 0.73 nM
CN1CCC(n2nnc(Cn3cc(NC(=O)c4cnn5cccnc45)c(-c4cc(Cl)ccc4OC(F)F)n3)n2)CC1 [Example 3, N-[3-[5-chloro-2-(difluoromethoxy)phenyl]-1-[[2-(1-methyl-4-piperidyl)tetrazol-5-yl]methyl]pyrazol-4-yl]pyrazolo[1,5-a]pyrimidine-3-carboxamide] | 0.58 nM | 14 nM | 0.43 nM
